pIC50: −log10 of the molar value.
The compounds below were run against T1, LRRK2(G2019S mutation, GST-LRRK2(amino acids 970-2527)) (Homo sapiens, UniProt Q5S007, G2019S) (assay: LRRK2 Km ATP LanthaScreen Assay). Conditions: Km ATP LanthaScreen Assay; LRRK2 G2019S; mean IC50 values; Examples 185-215; read-out: LRRK2 IC5).
T1 construct: GST-LRRK2(amino acids 970-2527); GST (N); purchased Life Technologies Corporation
Assay type: biochemical
Procedure, shortened: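 IC50 values are means of several runs in the Km-ATP LanthaScreen format, analysed by curve fitting of the LanthaScreen read-out.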

T1 sequence (Q5S007 970-2527 G2019S): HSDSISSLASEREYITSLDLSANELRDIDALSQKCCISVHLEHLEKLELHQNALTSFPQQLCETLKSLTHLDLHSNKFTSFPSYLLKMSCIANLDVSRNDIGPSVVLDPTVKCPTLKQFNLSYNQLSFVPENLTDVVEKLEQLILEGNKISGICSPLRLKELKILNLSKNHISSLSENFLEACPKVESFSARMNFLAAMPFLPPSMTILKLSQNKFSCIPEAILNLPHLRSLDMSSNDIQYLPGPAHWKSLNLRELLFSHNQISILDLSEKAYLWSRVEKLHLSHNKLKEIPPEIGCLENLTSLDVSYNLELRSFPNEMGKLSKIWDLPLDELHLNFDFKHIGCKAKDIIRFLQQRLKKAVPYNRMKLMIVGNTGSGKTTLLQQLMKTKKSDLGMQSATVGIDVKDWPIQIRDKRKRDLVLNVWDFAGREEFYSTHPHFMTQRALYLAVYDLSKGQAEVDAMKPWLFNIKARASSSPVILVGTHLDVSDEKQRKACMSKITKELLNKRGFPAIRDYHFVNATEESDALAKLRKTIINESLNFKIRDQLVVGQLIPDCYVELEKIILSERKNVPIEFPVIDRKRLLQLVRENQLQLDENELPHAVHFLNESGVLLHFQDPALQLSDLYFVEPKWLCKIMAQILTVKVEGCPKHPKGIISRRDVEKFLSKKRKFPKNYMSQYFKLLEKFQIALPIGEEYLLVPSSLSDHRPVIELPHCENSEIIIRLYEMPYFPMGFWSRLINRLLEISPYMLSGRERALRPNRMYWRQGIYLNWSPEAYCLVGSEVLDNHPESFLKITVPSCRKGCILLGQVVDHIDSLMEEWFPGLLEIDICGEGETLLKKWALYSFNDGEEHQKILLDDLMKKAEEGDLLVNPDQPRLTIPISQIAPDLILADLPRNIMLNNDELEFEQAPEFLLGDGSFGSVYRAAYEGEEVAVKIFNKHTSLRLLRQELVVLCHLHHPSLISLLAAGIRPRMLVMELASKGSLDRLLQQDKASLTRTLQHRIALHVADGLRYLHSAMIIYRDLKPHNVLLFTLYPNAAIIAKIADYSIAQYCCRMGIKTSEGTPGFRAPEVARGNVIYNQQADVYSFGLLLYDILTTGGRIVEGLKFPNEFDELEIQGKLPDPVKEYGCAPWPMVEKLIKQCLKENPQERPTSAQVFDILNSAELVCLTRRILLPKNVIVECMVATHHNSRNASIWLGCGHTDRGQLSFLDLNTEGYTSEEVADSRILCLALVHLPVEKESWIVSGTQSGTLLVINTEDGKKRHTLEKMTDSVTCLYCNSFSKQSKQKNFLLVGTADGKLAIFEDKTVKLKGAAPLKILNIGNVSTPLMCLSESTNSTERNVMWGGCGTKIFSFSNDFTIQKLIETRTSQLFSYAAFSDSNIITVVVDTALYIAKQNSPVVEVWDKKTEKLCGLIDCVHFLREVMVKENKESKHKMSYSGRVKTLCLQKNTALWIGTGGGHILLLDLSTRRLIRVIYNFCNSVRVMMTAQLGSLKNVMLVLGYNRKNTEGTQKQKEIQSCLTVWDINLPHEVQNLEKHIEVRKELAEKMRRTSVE

Row | SMILES | pIC50
1 | CC(C)Oc1ccc2[nH]nc(-c3ccnc(N4CCN(c5ccccc5)C(=O)C4)c3)c2c1 [Example 199] | 8.05
2 | Cc1nc2c(o1)CN(c1cc(-c3n[nH]c4ccc(OC(C)C)cc34)ccn1)CC2 [Example 198] | 8.04
3 | CC(C)Oc1ccc2[nH]nc(-c3ccnc(N4CCCC4)c3)c2c1 [Example 201] | 8.30
4 | CC(C)Oc1ccc2[nH]nc(-c3ccnc(N4CCCS(=O)(=O)CC4)c3)c2c1 [Example 188] | 7.67
5 | CC(C)Oc1ccc2[nH]nc(-c3ccnc(N4Cc5cccnc5C4)c3)c2c1 [Example 208] | 7.76
6 | CC(C)Oc1ccc2[nH]nc(-c3ccnc(N4CCCN(c5ncccn5)CC4)c3)c2c1 [Example 209] | 7.59
7 | CC(C)Oc1ccc2[nH]nc(-c3ccnc(N4CCN(CC5CC5)CC4)c3)c2c1 [Example 211] | 8.21

Same assay, conditions: Km ATP LanthaScreen Assay; LRRK2 G2019S; mean IC50 values; read-out: LRRK2 IC50

Row | SMILES | pIC50
8 | CCOc1ccc2[nH]nc(-c3ccnc(N4CCC(n5cccn5)C4)c3)c2c1 (stereo not shown) [Example 222] | 8.03
9 | OCCC1CN(c2cc(-c3n[nH]c4ccc(CO)cc34)ccn2)CCO1 (stereo not shown) [Example 128] | 8.00
10 | N#CCCNCc1ccc2[nH]nc(-c3ccnc(N4CCOCC4)c3)c2c1 [Example 93] | 7.52
11 | c1ccc2c(-c3ccnc(NCCN4CCOCC4)c3)n[nH]c2c1 [Example 73] | 7.46
12 | c1ccc2c(-c3ccnc(NC4COC4)c3)n[nH]c2c1 [Example 33] | 5.46
13 | CC(C)Oc1ccc2[nH]nc(-c3ccnc(NC(=O)c4cnc(C(C)C)nc4)c3)c2c1 [Example 147] | 7.15
14 | CN(C)CC1(O)CCN(c2cc(-c3n[nH]c4ccccc34)ccn2)CC1 [Example 56] | 7.60
15 | OCCNc1cc(-c2n[nH]c3ccccc23)ccn1 [Example 9] | 7.27
16 | CC(C)Oc1ccc2[nH]nc(-c3ccnc(NC(=O)c4ccno4)c3)c2c1 [Example 142] | 7.67
17 | CC(C)Oc1ccc2[nH]nc(-c3ccnc(NC(=O)CC4COCCO4)c3)c2c1 (stereo not shown) [Example 168] | 7.48
18 | FC1CCCN(c2cc(-c3n[nH]c4ccccc34)ccn2)C1 (stereo not shown) [Example 21] | 7.66
19 | CCOc1ccc2[nH]nc(-c3ccnc(N4CC5C(C4)C5(C#N)c4ccccn4)c3)c2c1 (stereo not shown) [Example 229] | 6.95
20 | CCN(CC)CCOc1ccc2[nH]nc(-c3ccnc(N4CCOCC4)c3)c2c1 [Example 80] | 7.43
21 | OC1(c2cccnc2)CCN(c2cc(-c3n[nH]c4ccccc34)ccn2)CC1 [Example 26] | 7.72
22 | CCOc1ccc2[nH]nc(-c3ccnc(N4CC(C#N)(c5ccccc5)C4)c3)c2c1 [Example 219] | 7.15
23 | CNCc1ccc2[nH]nc(-c3ccnc(N4CCOCC4)c3)c2c1 [Example 90] | 6.52
24 | c1cc(-c2n[nH]c3ccc(OCC4CCCO4)cc23)cc(N2CCOCC2)n1 (stereo not shown) [Example 83] | 8.27
25 | CCOc1ccc2[nH]nc(-c3ccnc(N4CCn5ccnc5C4)c3)c2c1 [Example 226] | 7.72
26 | COC1CN(c2cc(-c3n[nH]c4ccc(OC(F)(F)F)cc34)ccn2)C1 [Example 246] | 6.54
27 | CCOc1ccc2[nH]nc(-c3ccnc(N4CCC(F)(F)CC4)c3)c2c1 [Example 216] | 8.27
28 | c1ccc2c(-c3ccnc(N4CCC5(CC4)OCCO5)c3)n[nH]c2c1 [Example 15, 8-[4-(1H-indazol-3-yl)pyridin-2-yl]-1,4-dioxa-8-azaspiro[4.5]decane] | 7.44
29 | CC(C)Oc1ccc2[nH]nc(-c3ccnc(N4CC[C@H](O)C4)c3)c2c1 [Example 181] | 8.09
30 | FC1(F)CCN(c2cc(-c3n[nH]c4ccc(OC(F)(F)F)cc34)ccn2)CC1 [Example 243] | 5.97
31 | [2H]C1([2H])OC([2H])([2H])C([2H])([2H])N(c2cc(-c3n[nH]c4ccccc34)ccn2)C1([2H])[2H] [Example 401] | 7.57

Row | SMILES | pIC50
32 | CS(=O)(=O)C1CN(c2cc(-c3n[nH]c4ccc(OC(F)(F)F)cc34)ccn2)C1 [Example 236] | 6.98
33 | CC(C)Oc1ccc2[nH]nc(-c3ccnc(N4C5CCCC4CC5)c3)c2c1 [Example 179] | 7.75
34 | CC(C)Oc1ccc2[nH]nc(-c3ccnc(NC(=O)c4ccnc(-n5cnnn5)c4)c3)c2c1 [Example 148] | 7.62
35 | c1cc(-c2n[nH]c3ccc(OCCN4CCOCC4)cc23)cc(N2CCOCC2)n1 [Example 82] | 8.33
36 | O=C1CCN(c2cc(-c3n[nH]c4ccccc34)ccn2)CCN1 [Example 72] | 7.24
37 | CC(C)Oc1ccc2[nH]nc(-c3ccnc(N4C[C@@H]5C[C@H]4CO5)c3)c2c1 [Example 176] | 8.15
38 | CN(C)[C@@H]1CCN(c2cc(-c3n[nH]c4ccccc34)ccn2)C1 [Example 35] | 7.55
39 | c1ccc(N2CCN(c3cc(-c4n[nH]c5ccccc45)ccn3)CC2)nc1 [Example 13] | 7.66
40 | CCOc1ccc2[nH]nc(-c3ccnc(N4CCC(C#N)(c5ccccc5)C4)c3)c2c1 (stereo not shown) [Example 225] | 7.79
41 | CC(C)Oc1ccc2[nH]nc(-c3ccnc(NC(=O)Cc4ccsc4)c3)c2c1 [Example 157] | 7.46
42 | F[C@@H]1CCN(c2cc(-c3n[nH]c4ccc(OC(F)(F)F)cc34)ccn2)C1 [Example 240] | 6.69
43 | c1ccc2c(-c3ccnc(N4CCN(Cc5ccncc5)CC4)c3)n[nH]c2c1 [Example 19] | 7.74
44 | c1ccc(COc2ccnc(-c3ccc4[nH]nc(-c5ccnc(N6CCOCC6)c5)c4c3)n2)cc1 [Example 101] | 6.74
45 | O=C1CN(c2cc(-c3n[nH]c4ccccc34)ccn2)CCCN1 [Example 48] | 7.27
46 | CN(C)CC1CN(c2cc(-c3n[nH]c4ccccc34)ccn2)CCO1 (stereo not shown) [Example 43] | 7.72
47 | CC(C)Oc1ccc2[nH]nc(-c3ccnc(N4C[C@H](F)[C@@H](F)C4)c3)c2c1 [Example 174] | 8.18
48 | CN1CCC(CN(C)c2cc(-c3n[nH]c4ccccc34)ccn2)CC1 [Example 50] | 7.40
49 | NC(=O)C1CCCN(c2cc(-c3n[nH]c4ccccc34)ccn2)C1 (stereo not shown) [Example 71] | 7.80
50 | CC(C)Oc1ccc2[nH]nc(-c3ccnc(NC(=O)c4ccc5c(c4)C(=O)NC5)c3)c2c1 [Example 145] | 7.28
51 | CC(C)Oc1ccc2[nH]nc(-c3ccnc(NC(=O)C(C)C)c3)c2c1 [Example 154] | 7.40
52 | c1ccc2c(-c3ccnc(N4Cc5cncnc5C4)c3)n[nH]c2c1 [Example 59] | 7.43
53 | c1ccc2c(-c3ccnc(N4CCN(CCCN5CCOCC5)CC4)c3)n[nH]c2c1 [Example 53] | 7.74
54 | O=C(O)[C@H]1CCCN(c2cc(-c3n[nH]c4ccccc34)ccn2)C1 [Example 41] | 7.62

Same assay, conditions: Km ATP LanthaScreen; mean IC50 of several tests; read-out: LRRK2 IC50

Row | SMILES | pIC50
55 | c1cncc(-c2ccc3[nH]nc(-c4ccnc(N5CCOCC5)c4)c3c2)c1 [Example 98] | 8.47
56 | c1cc(-c2ccc3[nH]nc(-c4ccnc(N5CCOCC5)c4)c3c2)[nH]n1 [Example 346] | > 9.22
57 | CC(C)Oc1ccc2[nH]nc(-c3ccnc(N4CCN(C(=O)C5CC5)C(C)C4)c3)c2c1 (stereo not shown) [Example 386] | 8.55
58 | O=S(=O)(c1ccc2[nH]nc(-c3ccnc(N4CCOCC4)c3)c2c1)C1CC1 [Example 370] | 7.74
59 | COCCOc1ccc2[nH]nc(-c3ccnc(N4CCOCC4)c3)c2c1 [Example 377] | 7.15
60 | CC(C)Oc1ccc2[nH]nc(-c3ccnc(N4CCC(CCN)CC4)c3)c2c1 [Example 382] | 8.17
61 | OCc1ccc2[nH]nc(-c3ccnc(N4CCOCC4)c3)c2c1 [Example 86] | 7.79
62 | CC(C)Oc1ccc2[nH]nc(-c3ccnc(NS(=O)(=O)c4cccc(F)c4)c3)c2c1 [Example 256] | 7.37
63 | Cn1cc(-c2ccc3[nH]nc(-c4ccnc(N5CCC(C(=O)O)CC5)c4)c3c2)cn1 [Example 304] | 8.44
64 | COc1ccnc(Cl)c1-c1ccc2[nH]nc(-c3ccnc(N4CCOCC4)c3)c2c1 [Example 320] | > 9.22
65 | Cn1cc(-c2ccc3[nH]nc(-c4ccnc(N5CCc6oc(C7CC7)nc6C5)c4)c3c2)cn1 [Example 272] | 8.24
66 | CC(C)(O)COc1ccc2[nH]nc(-c3ccnc(N4CCOCC4)c3)c2c1 [Example 348] | 7.85
67 | Cn1cnnc1-c1ccc2[nH]nc(-c3ccnc(N4CCOCC4)c3)c2c1 [Ex 341] | 8.85
68 | Cc1nn(C)cc1-c1ccc2[nH]nc(-c3ccnc(N4CCOCC4)c3)c2c1 [Example 318] | 7.77
69 | Cn1cc(-c2ccc3[nH]nc(-c4ccnc(N5CCN(CCO)CC5)c4)c3c2)cn1 [Example 265] | 8.77
70 | Oc1cc(-c2ccc3[nH]nc(-c4ccnc(N5CCNCC5)c4)c3c2)ccn1 [Example 120] | 8.47
71 | CC(C)Oc1ccc2[nH]nc(-c3ccnc(N4CCN(C)C(=O)C4)c3)c2c1 [Example 312] | 8.59
72 | COc1ccnc(F)c1-c1ccc2[nH]nc(-c3ccnc(N4CCN(C(C)=O)CC4)c3)c2c1 [Example 367] | > 9.22
73 | Cn1cc(-c2ccc3[nH]nc(-c4ccnc(N5CC(O)C5)c4)c3c2)cn1 [Example 375] | > 9.22
74 | Brc1ccc2c(-c3ccnc(N4CCOCC4)c3)n[nH]c2c1 [Example 103] | 7.72
75 | CCOc1ccc2[nH]nc(-c3ccnc(N4CCN(C)CC4)c3)c2c1 [Example 362] | 8.00
76 | CC(C)(O)Cc1ccc2[nH]nc(-c3ccnc(N4CCOCC4)c3)c2c1 [Example 332] | 7.03
77 | OCc1cc2c(-c3ccnc(N4CCOCC4)c3)n[nH]c2cc1F [Example 347] | 7.42
78 | COc1ccc2[nH]nc(-c3ccnc(N4CCOCC4)c3)c2c1 [Example 79] | 8.13
79 | CC(C)Oc1ccc2[nH]nc(-c3ccnc(NS(=O)(=O)c4ccc5c(c4)N(C)C(=O)CO5)c3)c2c1 [Example 262] | 7.36
80 | O=C1CCN(c2cc(-c3n[nH]c4ccccc34)ccn2)CC1 [Example 76] | 7.35
81 | CCOc1ccc2[nH]nc(-c3ccnc(N[C@@H](C)COC)c3)c2c1 [Example 356] | 8.00
82 | c1cnc(-c2ccc3[nH]nc(-c4ccnc(N5CCOCC5)c4)c3c2)cn1 [Example 324] | 8.96

— patent US9440952B2, “Compounds inhibiting leucine-rich repeat kinase enzyme activity” (Merck Sharp & Dohme Corp., priority 2013, dated 2016)
